Measurements taken from patent US10537100B2, “Substituted methylenedioxybenzyl compounds and their use as synergists” (Endura SPA, priority 2015, dated 2020).

Key:
[1] = test system: CYP6CY3 from Myzus persicae; test: Inhibition of recombinant oxidase enzyme (P450) CYP6CY3, MFC substrate; format: biochemical; details: for inhibition activity compared with PBO: CYP6CY3, statement in text; for Myzus persicae CYP6CY3 percentage of activity remaining: recombinant enzyme 50 μL + 3 μL stock in acetone (Examples 1 and 2: 0.1 mM; PBO: 10 mM), 10 min incubation, MFC
Protocol: Ability of the synergists of the invention to inhibit oxidative enzymes (P450), a major mechanism conferring resistance to xenobiotics, was measured using recombinant enzymes corresponding to CYP6CY3 from Myzus persicae and CYP6CM1 from Bemisia tabaci.
The following synergists were tested in comparison with piperonyl butoxide (PBO): • 5-n-butyl-6-((prop-2-ynyloxy)methyl)benzo[d][1,3]dioxole the compound prepared in Example 2 • 5-n-hexyl-6-((prop-2-ynyloxy)methyl)benzo[d][1,3]dioxole the compound prepared in Example 1 CYP6CM1
For CYP6CY3, 7-ethoxycoumarin was not an appropriate substrate and MFC (7-methoxy-4-trifluoromethylcoumarin) was utilised instead. MFC was dissolved in dimethylsulfoxide to make a 20 mM stock solution and diluted by the addition of 0.1 M sodium phosphate buffer, pH 7.8, to give a concentration of 0.5 mM. Recombinant enzyme (10 μL) was added to separate wells of a microplate as before and diluted to 50 μL with 0.1 M phosphate buffer pH 7.6, followed by the addition of 80 μL of 0.5 mM MFC. The microplate was incubated for 5 min at 30° C., and the reaction was initiated by the addition of 10 μL of 9.6 mM NADPH in 0.1 M sodium phosphate, pH 7.8. Enzyme activity was read in a Spectramax Gemini EM for 60 min, with readings taken every 2 min, using an excitation wavelength of 410 nm and an emission wavelength of 510 nm, with a 495 nm cut-off filter. The rate (FU min^−1) was calculated by the integrated software, Softmax Pro v.5.4. as before.
For inhibition assays, stock solutions of the compounds of Example 1 and 2 (0.1 mM) were prepared in acetone. Dilute recombinant enzyme (50 μL) was mixed with 3 μL of stock solutions, with acetone only used as a control. After 10 min incubation at room temperature, 80 μL of 0.5 mM MFC was added, followed by 10 μL of 9.6 mM NADPH in 0.1 M sodium phosphate, pH 7.8. Enzyme activity remaining was then monitored as above. A PBO solution (10 mM) was prepared in the same way as a comparison.

Blattella germanica = test: Contact test on treated glass vials, synergist with cypermethrin; format: in vivo
Protocol: Laboratory bred B. germanica species, mixed ages (pre-immaginal and imagoes) and mixed sex were assayed for the test.
An insecticide stock solution was prepared with 150 μL of cypermethrin commercial formulation and diluted to 15 μL/mL with technical acetone to a final volume of 10 mL. The solution contained 450 μg/mL of cypermethrin per liter of insecticidal solution
Stock solution of the compounds of Example 1 and Example 2 were prepared dissolving around 10 mg of EC formulations containing compounds of the Example 1 and Example 2 in technical acetone to have a final concentration of 1.365 μg/mL.
Stock solution (1650 μL) was diluted to 2250 μL with acetone or with stock of insecticide in acetone to have respectively a final concentration of 1 g/L of synergist (as active ingredient) or 0.12 g/L of cypermethrin+1 g/L of the compounds of Example 1 and Example 2. Insecticide alone was prepared adding 600 μL of stock solution to 1650 μL of acetone.
Glass vials (internal surface 35 cm^2) were treated with 350 μL of insecticide solution and allowed to dry in a fume hood on a vial rotator and used as soon as the acetone was fully evaporated.
B. germanica specimens were introduced singly in vials. 20 specimens were tested for each combination of product. The exposure time to product residues was 30 minutes. After this duration the specimens were transferred to an untreated vial ad provided with food and water.
In parallel within the test, a control study has been set up with the same conditions and methods using acetone only treated vials.
The test conditions were as follows: • temperature: 22-24° C. during knock down evaluation (t: 0-30′); 26° C. during mortality assessment (t: 24 h) • relative humidity: min. 60% • light regime: 8 hrs dark/16 hrs natural illumination.
The reading intervals of the number of knocked down and the number of dead insects were: 5-10-15-20-25-30 minutes. A final reading was done 24 hours after the starting of the exposure.
The calculation model of efficacy is according to Abbott's formula (Abbott W S (1925) A method for computing the effectiveness of an insecticide. J. Econ. Entomol. 18: 265-267):
The results are reported in the following Table 5 and represent an average of 4 repetitions.

[2] = test system: Myzus persicae clone highly resistant to insecticide; test: Contact test on treated plant (pea seedling dip), synergist with neonicotinoid; format: in vivo; details: for Efficacy of the tested compounds: synergist 1 g/L, mortality assessed at 48 hours, Abbott's formula
Protocol: Laboratory bred Myzus persicae clone highly resistant to insecticide, derived from a field collected population after control failure, mixed age apterous parthenogenetic females adults, were assayed for the test.
Four (4) different commercially available formulated insecticides were used and diluted as follow: • imidacloprid: 1000 mL of test solution was prepared diluting in water 20 μL of commercial formulation, containing 200 g/L of a.i., equivalent to 0.004 g of imidacloprid per liter of insecticidal solution; • thiacloprid: 1000 mL of test solution was prepared diluting in water 24 μL of commercial formulation containing 480 g/L of a.i, equivalent to 0.012 g of thiacloprid per liter of insecticidal solution;
The compounds of Example 1 and Example 2 were formulated in the form of emulsified concentrate (EC).
The following amount of the EC formulations were added to the above described insecticidal solution of insecticide to have a final concentration of synergist equal to 1 g/L:
20 mL of test formulations were used to wet by dipping for 5″ a small pea seedling (1-1.5 cm long). Seedlings were left at room temperature in a fume hood and allowed to dry for 15″. After drying 10-15 apterous parthenogenetic females were moved to the seedling and allowed to settle. Mortality produced by pyrethroids was assessed 24 hours later. Mortality produced by neonicotinoids was assessed 48 hours later.
Three replicates were executed each composed by 2 subreplicates (seedlings) and 60-90 specimens were used per test formulation.
In parallel with the test, the mortality of aphids in an untreated control replicate (seedlings dipped in water) was determined using the same conditions and methods.
The efficacy was calculated according the Abbott's formula: […]

[3] = Imidacloprid (0.004 g per liter)
[4] = thiacloprid (0.012 g per liter)

C#CCOCc1cc2c(cc1CCCC)OCO2 [Compound of Example 2, 5-n-butyl-6-((prop-2-ynyloxy)methyl)benzo[d][1,3]dioxole]
inhibition activity compared with PBO [1]: better than PBO | Myzus persicae CYP6CY3 percentage of activity remaining [1]: 4.04% | synergist effect when mixed with Cypermethrin (Blattella germanica): synergist effect | efficacy in combination with imidacloprid and thiacloprid [2]: very good efficacy | Efficacy of the tested compounds [2, 3]: −20.3 | Efficacy of the tested compounds [2, 4]: −20.3

C#CCOCc1cc2c(cc1CCCCCC)OCO2 [Compound of Example 1, 5-n-hexyl-6-((prop-2-ynyloxy)methyl)benzo[d][1,3]dioxole]
inhibition activity compared with PBO [1]: better than PBO | Myzus persicae CYP6CY3 percentage of activity remaining [1]: 8.51% | synergist effect when mixed with Cypermethrin (Blattella germanica): synergist effect | efficacy in combination with imidacloprid and thiacloprid [2]: very good efficacy | Efficacy of the tested compounds [2, 3]: 23.8 | Efficacy of the tested compounds [2, 4]: 23.8
